Data reported in patent US20250388605A1, “HETEROBIFUNCTIONAL COMPOUNDS AND METHODS OF TREATING DISEASE” (Halda Therapeutics OpCo, Inc., priority 2022, published 2025).

Experiments:
[1] = tested on: T-Rex 293 cell line SC3 cells having increased expression of androgen receptor protein due to exposure to doxycycline; assay: Cellular growth inhibition, T-Rex 293 SC3 cells with doxycycline (increased androgen receptor expression), CellTiter-Glo; assay type: cell-based; settings: T-Rex 293 SC3 cells with 10 ng/mL doxycycline (increased androgen receptor expression), 72 hours, CellTiter-Glo 2.0
Method: (§1) The following types of cells were prepared for this experiment: (i) a T-Rex 293 cell line having increased expression of androgen receptor protein due to exposure to doxycycline and (ii) a T-Rex 293 cell line lacking increased expression of androgen receptor protein. Ability of the test compounds to inhibit proliferation of the foregoing cell types was evaluated according to the procedures set forth below.
(§2) The doxycycline-inducible androgen receptor protein expressing cell line was established using the following protocol: T-Rex 293 cells were purchased from Invitrogen (Cat #R71007) and transfected using Lipofectamine 2000 with the wild-type androgen receptor protein sequence cloned into the pcDNA4/TO vector. Transfected cells were selected using 400 μg/mL Zeocin (Invitrogen Cat #R25001). Following selection, single clones were raised and maintained in Dulbecco's Modified Eagle Medium (DMEM) supplemented with 10% w/w Tetracycline-free fetal bovine serum (FBS) and 250 μg/mL Zeocin. Clones were analyzed for expression of androgen receptor protein in the presence and absence of 10 ng/mL doxycycline (Sigma Cat #D9891), and a single doxycycline-inducible clone (hereinafter “SC3”) was selected for use in downstream assays.
(§3) The SC3 cells were seeded on poly-D-lysine coated, black clear-bottom 384-well plates at 2500/well, in 25 μL Phenol Red Free Dulbecco's Modified Eagle Medium (DMEM) supplemented with 10% w/w charcoal-dextran treated fetal bovine serum (FBS) and 1% w/w pen-strep, with or without 10 ng/mL doxycycline. Pen-Strep is a commercially available mixture of penicillin G and streptomycin, which is used in mammalian cell culture media to prevent bacterial contamination. Phenol Red Free Dulbecco's Modified Eagle Medium (DMEM) supplemented with 10% w/w charcoal-dextran treated fetal bovine serum (FBS) and 1% w/w pen-strep, with or without 10 ng/mL doxycycline is herein referred to as Treatment Medium. Following seeding of cells in the plates, the plates were spun at 300×g for 30 seconds, then equilibrated to room temperature for 30 minutes, and then deposited in a humidified tissue culture incubator maintained at 37° C. with 5% CO2.
(§4) At 24 hours after seeding of the cells, dilutions of test compound were prepared in DMSO and dissolved in Treatment Medium, to achieve a final DMSO concentration of 0.5% w/w, thereby providing the Test Compound Solution. A 25 μL aliquot of the Test Compound Solution was added to cells in the well plates. An equal volume of a solution containing DMSO and Treatment Medium was used as a negative control. Following treatment of cells with Test Compound Solution or said equal volume of a solution containing DMSO and Treatment Medium, the plates were spun at 300×g for 30 seconds, and then left in an incubator for 72 hours.
(§5) At the end of the treatment duration, cell viability was quantified with CellTiter-Glo 2.0 reagent (Promega Cat #G9243). For this purpose, plates were equilibrated to room temperature for 30 minutes, and then 25 μL of CellTiter-Glo 2.0 reagent was added to cells in the plate wells. Plates were then agitated on a shaker for two minutes at 500 rpm and subsequently incubated at room temperature for 10 minutes. Following incubation, the plates were spun at 3000×g for 30 seconds, then sealed with an optical adhesive cover, and luminescence readings were measured with an EnVision Plate Reader.
(§6) Data was normalized using zero luminescence for baseline. A four-parameter non-linear regression curve fit was applied to dose-response data in GraphPad Prism data analysis software to determine the half-maximal growth inhibitory concentration (GI50) for each test compound.

[2] = tested on: T-Rex 293 cell line SC3 cells lacking increased expression of androgen receptor protein; assay: Cellular growth inhibition, T-Rex 293 SC3 cells without doxycycline (no increased androgen receptor expression), CellTiter-Glo; assay type: cell-based; settings: T-Rex 293 SC3 cells not exposed to doxycycline (no increased androgen receptor expression), 72 hours
Method: as §1, §2, §3, §4, §5, §6

[3] = tested on: VCaP cells; assay: Cellular growth inhibition assay for VCaP cells, CellTiter-Glo; assay type: cell-based, human; settings: 72 hours
Method: VCaP cells were purchased from American Type Cell Culture (ATCC Cat #CRL2876) and then seeded on poly-D-lysine coated, black clear-bottom 384-well plates at 5000/well in 25 μL Dulbecco's Modified Eagle Medium (DMEM) supplemented with 10% w/w Fetal bovine serum (FBS) and 1% w/w Pen-Strep. Pen-Strep is a commercially available mixture of penicillin G and streptomycin, which is used in mammalian cell culture media to prevent bacterial contamination. Dulbecco's Modified Eagle Medium (DMEM) supplemented with 10% w/w fetal bovine serum (FBS) and 1% w/w Pen-Strep is herein referred to as Treatment Medium. Following seeding of cells in the plates, the plates were spun at 300×g for 30 seconds, then equilibrated to room temperature for 30 minutes, and then deposited in a humidified tissue culture incubator maintained at 37° C. with 5% CO2.
as §4, §5, §6

Compound	GI50 [1] [nM]	GI50 [2] [nM]	GI50 ([3]; Homo sapiens) [nM]	GI50 [3] [nM]
CCS(=O)(=O)c1ccc(Oc2cccc(OCCOC3CCN(c4ccc(C(=O)N[C@H]5C(C)(C)[C@H](Oc6ccc(C#N)c(Cl)c6)C5(C)C)nn4)CC3)c2F)c(-c2cn(C)c(=O)c3[nH]ccc23)c1 [Compound I-169]	< 500	< 500	< 500	–
CCS(=O)(=O)Nc1ccc(Oc2cccc(OCCOCCCOC3CCN(c4ncc(C(=O)N[C@H]5C(C)(C)[C@H](Oc6ccc(C#N)c(Cl)c6)C5(C)C)cn4)CC3)c2)c(-c2cn(C)c(=O)c3[nH]ccc23)c1 [Compound I-16]	< 500	< 500	< 500	–
CCS(=O)(=O)Cc1ccc(Oc2cccc(OCCCC3CCN(c4ncc(C(=O)N[C@H]5C(C)(C)[C@H](Oc6ccc(C#N)c(Cl)c6)C5(C)C)cn4)CC3)c2F)c(-c2cn(C)c(=O)c3[nH]ccc23)c1 [Compound I-168]	< 500	> 3000	< 500	–
CCS(=O)(=O)Nc1ccc(Oc2cccc(OCCCCC3CCN(c4ncc(C(=O)N[C@H]5C(C)(C)[C@H](Oc6ccc(C#N)c(Cl)c6)C5(C)C)cn4)CC3)c2)c(-c2cn(C)c(=O)c3[nH]ccc23)c1 [Compound I-28]	< 500	500 to 1500	< 500	–
CCS(=O)(=O)Nc1ccc(Oc2cccc(N(C)C3CC(C4CCN(c5ncc(C(=O)N[C@H]6C(C)(C)[C@H](Oc7ccc(C#N)c(Cl)c7)C6(C)C)cn5)CC4)C3)c2)c(-c2cn(C)c(=O)c3[nH]ccc23)c1 (stereo partly drawn) [Compound I-172]	< 500	> 3000	–	> 3000
CCS(=O)(=O)Nc1ccc(Oc2cc(OCCOC3CCN(c4ncc(C(=O)N[C@H]5C(C)(C)[C@H](Oc6ccc(C#N)c(Cl)c6)C5(C)C)cn4)CC3)ccn2)c(-c2cn(C)c(=O)c3[nH]ccc23)c1 [Compound I-111]	< 500	> 3000	< 500	–
CCS(=O)(=O)Nc1ccc(Oc2ccc(F)c(OCCOC3CCN(c4ncc(C(=O)N[C@H]5C(C)(C)[C@H](Oc6ccc(C#N)c(Cl)c6)C5(C)C)cn4)CC3)c2)c(-c2cn(C)c(=O)c3[nH]ccc23)c1 [Compound I-128]	< 500	> 3000	< 500	–
CCS(=O)(=O)Cc1ccc(Oc2cccc(CCOC3CCN(c4ncc(C(=O)N[C@H]5C(C)(C)[C@H](Oc6ccc(C#N)c(Cl)c6)C5(C)C)cn4)CC3)c2F)c(-c2cn(C)c(=O)c3[nH]ccc23)c1 [Compound I-160]	< 500	< 500	–	< 500
CCS(=O)(=O)Nc1ccc(Oc2cc(F)cc(OCCOC3CCN(c4ncc(C(=O)N[C@H]5C(C)(C)[C@H](Oc6ccc(C#N)c(Cl)c6)C5(C)C)cn4)CC3)c2)c(-c2cn(C)c(=O)c3[nH]ccc23)c1 [Compound I-127]	< 500	> 3000	< 500	–
CCS(=O)(=O)c1ccc(Oc2cccc(OCCOC3CCN(c4ncc(C(=O)N[C@H]5C(C)(C)[C@H](Oc6ccc(C#N)c(Cl)c6)C5(C)C)cn4)CC3)c2)c(-c2cn(C)c(=O)c3[nH]ccc23)c1 [Compound I-55, N-((1r, 3r)-3-(3-chloro-4-cyanophenoxy)-2,2,4,4-tetramethylcyclobutyl)-2-(4-(2-(3-(4-(ethylsulfonyl)-2-(6-methyl-7-oxo-6,7-dihydro-1H-pyrrolo[2,3-c]pyridin-4-yl)phenoxy)phenoxy)ethoxy)piperidin-1-yl)pyrimidine-5-carboxamide]	< 500	< 500	< 500	–
Cn1cc(-c2cc(NS(=O)(=O)C3CC3)ccc2Oc2cccc(OCCC3CCN(c4ncc(C(=O)N[C@H]5C(C)(C)[C@H](Oc6ccc(C#N)c(Cl)c6)C5(C)C)cn4)CC3)c2)c2cc[nH]c2c1=O [Compound I-130]	< 500	> 3000	–	< 500
Cn1cc(-c2cc(NS(C)(=O)=O)ccc2Oc2cccc(OCCOC3CCN(c4ncc(C(=O)N[C@H]5C(C)(C)[C@H](Oc6ccc(C#N)c(Cl)c6)C5(C)C)cn4)CC3)c2)c2cc[nH]c2c1=O [Compound I-50, N-((1r, 3r)-3-(3-chloro-4-cyanophenoxy)-2,2,4,4-tetramethylcyclobutyl)-2-(4-(2-(3-(2-(6-methyl-7-oxo-6,7-dihydro-1H-pyrrolo[2,3-c]pyridin-4-yl)-4-(methylsulfonamido)phenoxy)phenoxy)ethoxy)piperidin-1-yl)pyrimidine-5-carboxamide]	< 500	< 500	< 500	–
CCS(=O)(=O)Nc1cc(F)c(Oc2cccc(OCCOC3CCN(c4ncc(C(=O)N[C@H]5C(C)(C)[C@H](Oc6ccc(C#N)c(Cl)c6)C5(C)C)cn4)CC3)c2)c(-c2cn(C)c(=O)c3[nH]ccc23)c1 [Compound I-161]	< 500	> 3000	< 500	–
CCS(=O)(=O)Nc1ccc(Oc2cccc(OCCOC3CCN(c4ccc(C(=O)N[C@H]5C(C)(C)[C@H](Oc6ccc(C#N)c(Cl)c6)C5(C)C)cn4)CC3)c2F)c(-c2cn(C)c(=O)c3[nH]ccc23)c1 [Compound I-188]	< 500	< 500	< 500	–
CCS(=O)(=O)Nc1ccc(Oc2cccc(OCCNC3CCN(c4ncc(C(=O)N[C@H]5C(C)(C)[C@H](Oc6ccc(C#N)c(Cl)c6)C5(C)C)cn4)CC3)c2)c(-c2cn(C)c(=O)c3[nH]ccc23)c1 [Compound I-85]	< 500	500 to 1500	< 500	–
CCS(=O)(=O)Nc1ccc(Oc2cccc(N(C)CCOC3CCN(c4ncc(C(=O)N[C@H]5C(C)(C)[C@H](Oc6ccc(C#N)c(Cl)c6)C5(C)C)cn4)CC3)c2)c(-c2cn(C)c(=O)c3[nH]ccc23)c1 [Compound I-113]	< 500	< 500	< 500	–
CCS(=O)(=O)Nc1ccc(Oc2cc(OCCOC3CCN(c4ncc(C(=O)N[C@H]5C(C)(C)[C@H](Oc6ccc(C#N)c(Cl)c6)C5(C)C)cn4)CC3)ccc2F)c(-c2cn(C)c(=O)c3[nH]ccc23)c1 [Compound I-150]	< 500	> 3000	< 500	–
CCS(=O)(=O)Nc1ccc(Oc2ccc(OCCOC3CCN(c4ncc(C(=O)N[C@H]5C(C)(C)[C@H](Oc6ccc(C#N)c(Cl)c6)C5(C)C)cn4)CC3)cc2)c(-c2cn(C)c(=O)c3[nH]ccc23)c1 [Compound I-139]	< 500	< 500	–	< 500
CCS(=O)(=O)Nc1ccc(Oc2cccc(OCCCCN3CCN(CC4CCN(c5ncc(C(=O)N[C@H]6C(C)(C)[C@H](Oc7ccc(C#N)c(Cl)c7)C6(C)C)cn5)CC4)CC3)c2)c(-c2cn(C)c(=O)c3[nH]ccc23)c1 [Compound I-34]	< 500	< 500	< 500	–
